Reference: patent publication US20140154730A1, “METHOD FOR STABILIZATION OF FLUID BIOLOGICAL SAMPLES” (DENATOR AB, priority 2011, published 2014)

Assays:
[1] = Stabilization of oseltamivir in mouse blood spotted on Whatman FTA DMPK-C card; type: in vitro ADME; conditions: mouse blood spiked 500 ng/mL; for % oseltamivir metabolized: 25 μL spot on Whatman FTA DMPK-C card
Protocol: Oseltamivir is an oral prodrug of oseltamivir carboxylate, a selective inhibitor of viral neuramidase glycoprotein in influenza A. Oseltamivir undergoes fast bioconversion to oseltamivir carboxylate mostly by carboxylesterase 1 (CES 1).
Mouse blood was spiked with oseltamivir, 500 ng/mL. 25 μL, blood was spotted on Whatman FTA DMPK-C card. Spot were left to dry at room temperature, or heat treated using a Stabilizor™ System (Denator A B, Göteborg, Sweden) then left to dry.

[2] = Effect of different drying conditions on oseltamivir metabolism in spotted mouse blood; type: in vitro ADME; conditions: mouse blood spiked 2000 ng/mL, 25 μL spot on Whatman FTA DMPK-C card
Protocol: (§1) FIG. 2 is a graph showing the amount of metabolized Oseltamivir in samples following different treatments. Samples A were treated according to standard procedures according to manufacturer's instructions, i.e. dried in open air for 2 hrs. Samples B were dried in closed bags with silica. Samples C were heat stabilized and subsequently dried in open air. Samples D were heat stabilized and subsequently dried in closed bags with silica. Values in FIG. 2 showing % oseltamivir metabolized are mean of three samples
as §1, with “Mouse blood was spiked with oseltamivir, 2000 ng/mL. 25 μL, blood was spotted on Whatman FTA DMPK-C card. Spots were allowed to dry under” for “FIG. 2 is a graph showing the amount of metabolized Oseltamivir in samples following”, “conditions, with our without prior heat stabilization.” for “treatments.”, “samples.” for “samples”

Question: With `CCOC(=O)C1=C[C@@H](OC(CC)CC)[C@H](NC(C)=O)[C@@H](N)C1` [oseltamivir] as the compound, how does the “% oseltamivir metabolized” value ([1]; treatment: Drying at room temperature only) read?
Answer: Its value is 27%.

Question: What about the “% oseltamivir metabolized” value ([1]; treatment: Heating (Stabilizor System) then left to dry) of the same compound?
Answer: Its value is 3%.

Question: What about the “metabolism of the prodrug, heat treatment compared to only passive drying” value ([1]; sample on paper, heat treated) of the same compound?
Answer: The value was “strongly reduced the metabolism”.

Question: And the “amount of metabolized oseltamivir, not heat stabilized, dried in closed bags with silica (Samples B)” value ([2]; compared to drying in open air)?
Answer: The value was “even higher amount of metabolized oseltamivir”.

Question: What about the “amount of metabolized oseltamivir, heat stabilized, dried in closed bags with silica (Samples D)” value ([2]; compared to drying in open air (Samples C)) of the same compound?
Answer: The value was “does not affect the amount of metabolized oseltamivir”.

Question: What about the “amount of metabolized oseltamivir, heat stabilized samples (C, D) versus not heat stabilized” value ([2]; mean of three samples) of the same compound?
Answer: The value was “significant lower amount of metabolized oseltamivir”.
